# Experimental data published in patent US20230123585A1, “COMPOSITIONS AND METHODS FOR TREATING OR PREVENTING CANCER USING DEUBIQUITINASE INHIBITORS” (The University of Chicago, priority 2020, published 2023).
# How the values were obtained:
# [1] = test system: pluripotency transcripts in R-WT mESCs; assay: Turnover of m^6A-labeled pluripotency transcripts by qPCR after actinomycin D in mESCs; format: cell-based, mouse; conditions: 10 μM PD0325901, 5 μg/ml actinomycin D
# Excerpt: FIGS. 4A-4E: Phosphorylation of METTL3/WTAP by ERK Facilitates Resolution of Pluripotency. (A) LC-MS/MS quantification of the m^6A/A ratio in mRNA of mESC stable transfectants. (B) Representative flow cytometry analyses of mESC stable transfectants for the activity of alkaline phosphatase (AP) and expression of stage-specific embryonic antigen-1 (SSEA-1). (C) qPCR analysis of pluripotency genes in R-3A2A versus R-WT mESCs. (D) Relative levels of Nanog, measured by qPCR, at the indicate times after 5 μg/ml actinomycin D treatment. mRNA levels were monitored in R-WT (black), R-WT with 10 μM PD0325901 (green), and R-3A2A (red) mESC. (E) qPCR analysis for pluripotency and differentiation markers expression after 8 days of embryonic body (EB) induction. Error bars indicated SD (n=3). (See also FIG. 12.)
# FIGS. 12A-12I: Phosphorylation of METTL3/WTAP by ERK Facilitates Resolution of Pluripotency. (A) Representative phase-contrast microscopy showing colony size of R-3A2A versus R-WT mESC cells. (B) Cell growth of R-WT and R-3A2A mESCs were measured by sulforhodamine B dye (SRB assay). […] (D-H) Relative levels of Zfp42, Klf2, Sox2, Lefty1, and Pou5f 1, measured by qPCR, at the indicate times after 5 μg/ml actinomycin D treatment. mRNA levels were monitored in R-WT (black), R-WT with 10 μM PD0325901 (green), and R-3A2A (red) mESCs. […]
# [2] = test system: METTL3 / m^6A methyltransferase complex in A375 cells; assay: Immunoblot of METTL3 / m^6A methyltransferase complex protein in A375 cell lysates; format: cell-based, human
# Protocol: FIGS. 6A-6H: Phosphorylation of the m^6A Methyltransferase Complex May Affect Tumorigenesis. (A) Lysates of A375 stable transfectants harvested at different time points after treatment with cycloheximide (CHX) 10 μg/ml were analyzed by immunoblot. (B) LC-MS/MS quantification of the m^6A/A ratio in mRNA of A375 stable transfectants. (C) After 8 h treatment with 10 μM PD0325901 or 0.1 μM tramentib, cell lysates from A375 cells were analyzed by immunoblot. (D) LC-MS/MS quantification of the m^6A/A ratio in mRNA of A375 cells treated with 10 μM PD0325901 or 0.1 μM tramentib for 48 h. (E) After 8hr treatment with 10 μM EOAI3402143 (EOAI) or 30 μM vialinin A , cell lysates from A375 cells were analyzed by immunoblot. (F) A375 stable transfectants as indicated were treated with 3 μM EOAI3402143 (EOAI) or 10 μM vialinin A before measuring cell viability by SRB assay. Data are presented as relative to the R-WT cells without drug treatment (n=3 per group, data represent mean±SEM). (G) Immunofluorescence analysis of METTL3 (green) in SKBR3 cells treated with 1 μM tucatinib and 1 μM lapatinib for 8 hr. DAPI (blue) was used to mark the nucleus. (H) LC-MS/MS quantification of the m^6A/A ratio in mRNA of SKBR3 and BT474 cells treated with 1 μM tucatinib and 1 μM lapatinib for 48 h. (See also FIG. 14.)
# FIGS. 11A-11G: USP5 is Required for ERK-Mediated METTL3 Stabilization. (A) A375 cells transfected with HA-ubiquitin (ub) were treated with 10 μM MG-132 and MEK inhibitor PD0325901 for 8 h. The ubiquitination of METTL3 was detected by IP with anti-METTL3 and immunoblot with anti-HA. (B) After 8 h treatment with 10 μM PD0325901 with or without 10 μM MG-132, cell lysates from A375 cells were analyzed by immunoblot. (C) A375 cells were treated with various concentrations of PD0325901 for 1 h. Cell lysates were subjected to IP with METTL3 antibody followed by immunoblot. (D) 293T cells transfected as indicated were subjected to IP/immunoblot analysis. (E) Immunofluorescence analysis of myc-METTL3 (green) in mESC stable transfectants. DAPI (blue) was used to mark the nucleus. (F) Lysates of 293T cells transfected as indicated were subjected to IP with anti-Flag antibody followed by immunoblot. (G) Immunofluorescence analysis of 293T cells co-transfected with myc-METTL3 (green), Flag-USP5 (red) with or without constitutively active B-RAF.
# Immunoprecipitation, immunoblotting, and in vitro kinase assay. Immunoprecipitation (IP) and immunoblotting (IB) were performed as previously described (Sun et al., 2016). In brief, protein samples were isolated from respective cells by lysis in RIPA buffer (1% Triton X-100, 150 mM NaCl, 20 mM Na2PO4, pH 7.4) containing Halt Protease and Phosphatase Inhibitor Cocktail (Thermo Scientific). Subsequently, a BCA assay (Thermo Scientific) was used to determine the protein concentrations. For IP, indicated antibody and protein A/G magnetic beads (Thermo Scientific) were incubated with lysate at 4° C. overnight followed by washing and elution with sample buffer. Equal amounts of protein were separated by SDS-PAGE followed by wet transfer to PVDF membranes. Blots were blocked with 5% non-fat milk or BSA and incubated with respective primary antibody at 4° C. overnight. Primary antibodies were detected by HRP-linked secondary antibodies (Cell Signaling) together with SuperSignal West Pico Plus chemiluminescent substrate (Thermo Scientific) and imaged in a FluorChem R system (ProteinSimple).
compound,measurement,setting,value
O=C(NOC[C@H](O)CO)c1ccc(F)c(F)c1Nc1ccc(I)cc1F [PD0325901],turnover of m^6A-labeled pluripotency transcripts after transcription arrest,[1],delayed turnover
same,degradation of METTL3,"[2]; A375 cells, 10 μM PD0325901, 8 h",increased
same,protein levels of the m^6A methyltransferase complex,"[2]; A375 melanoma cells, 8 h, 10 μM PD0325901 or 0.1 μM trametinib",reduce
